In patent US20250154198A1, “PEPTIDE INHIBITORS OF INTERLEUKIN-23 RECEPTOR” (Zealand Pharma A/S, priority 2021, published 2025) one finds Ki data, which are given here for ten molecules.

*1 amine or outer side, *2 acyl side, *3 side chain or, on linkers, in order; H or OH if unused. Where a SMILES comes first, the peptide text is derived from it. Bridges are numbered along the chain shown (N, C = ends). [ ]: non-standard residue; d: D form. The star is where a group is joined. Me3N+(CH2)2O(CH2)2O(CH2)2CO = C[N+](C)(C)CCOCCOCCC(=O)*; Trp(7-Me) = Cc1cccc2c(C[C@H](N)C(=O)O)c[nH]c12; 2Nal = N[C@@H](Cc1ccc2ccccc2c1)C(=O)O; AEF = NCCOc1ccc(C[C@H](N)C(=O)O)cc1; X1 = O=C(Cc1ccc(CN[*:1])cc1)[*:2]; 4Pal = N[C@@H](Cc1ccncc1)C(=O)O; αMeL = CC(C)C[C@](C)(N)C(=O)O; CH2COCH2 = O=C(C[*:1])C[*:2]; 3Amb = NCc1cccc(C(=O)O)c1; dDab = NCC[C@@H](N)C(=O)O; Orn = NCCC[C@H](N)C(=O)O; Dab = NCC[C@H](N)C(=O)O

For one test, the target named is T1, human IL-23R (Homo sapiens, UniProt Q5VWK5).
T1 construct: UniProtKB—Q5VWK5, amino acids 22-629; secretion signal of the plasmid (Promega N1371); expressed in transfected cells
T1 sequence (Q5VWK5 22-629): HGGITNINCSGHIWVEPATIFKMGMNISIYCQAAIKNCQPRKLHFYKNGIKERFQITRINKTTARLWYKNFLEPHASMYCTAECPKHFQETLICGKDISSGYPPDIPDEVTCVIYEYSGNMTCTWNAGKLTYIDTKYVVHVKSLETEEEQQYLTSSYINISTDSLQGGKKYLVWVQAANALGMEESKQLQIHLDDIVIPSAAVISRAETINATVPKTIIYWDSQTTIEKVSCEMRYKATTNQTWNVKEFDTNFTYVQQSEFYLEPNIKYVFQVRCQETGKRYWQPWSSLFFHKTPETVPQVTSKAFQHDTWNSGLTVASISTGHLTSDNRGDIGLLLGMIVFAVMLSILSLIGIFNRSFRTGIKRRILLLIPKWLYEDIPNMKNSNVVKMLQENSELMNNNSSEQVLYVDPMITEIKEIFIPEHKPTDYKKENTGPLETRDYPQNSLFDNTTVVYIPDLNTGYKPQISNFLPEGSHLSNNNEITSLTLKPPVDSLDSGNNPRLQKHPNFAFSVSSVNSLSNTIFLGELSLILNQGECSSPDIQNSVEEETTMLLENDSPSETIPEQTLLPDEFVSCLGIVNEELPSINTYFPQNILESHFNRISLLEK
As to the kind of experiment: Binding assay (NanoBRET displacement of fluorophore-labelled reference compound) for estimating binding affinity to human IL-23R.
Conditions: not given
An excerpt: Binding Assay for Estimating Binding Affinity of Compounds to Human IL-23R
The compound binding affinity for IL-23R was estimated by the ability of compounds to displace a fluorophore-labelled reference compound from the human IL-23R. The assay principle relies on Bioluminescence Resonance Energy Transfer (BRET) between a fluorophore-labelled reference compound binding to the IL-23R part of a fusion protein consisting of the IL-23R fused to a Nanoluc luciferase enzyme (Nanoluc). The Nanoluc is placed in the N-terminus in close proximity to the binding domain of the ligand. Upon close proximity between the fluorophore of the fluorophore-labelled compound and the Nanoluc of the fusion protein, bioluminescence energy generated from conversion of a Nanoluc substrate, is transferred to the fluorophore resulting in an increase in BRET. In presence of an unlabelled compound, the unlabelled compound displaces the fluorophore-labelled peptide from its binding site resulting in a decrease in BRET. The concentration for which half of the fluorophore-labelled peptide is displaced by the unlabelled compound depends on the affinity of the compound for the IL-23R, and is termed the IC50 concentration. An estimated affinity (K) of the unlabelled compound for the IL-23R may be calculated using the Cheng-Prussov equation, which takes into account the concentration of the fluorophore-labelled compound used, and the affinity of the fluorophore-labelled compound for IL-23R.
The plasmid also contained a gene to confer resistance for the antibiotic hygromycin. A cell line stably expressing the Nluc-IL23R fusion protein was generated by transfection of HEK293 cells with the expression plasmid and selected with hygromycin for 3 weeks in Growth medium consisting of DMEM w/Glutamax-I containing, 10% V/V FBS, 1% V/V P/S, 1 mM Sodium Pyruvate, and 1×NEAA, and 0.3 mg/mL hygromycin. The remaining cells were propagated and considered a stable expressing Nluc-IL23R fusion protein pool clone.
Cells expressing the Nluc-IL23R fusion protein were expanded in Growth medium and membranes prepared by homogenization of a cell pellet from 18 T175 flasks (4° C. in subsequent steps). The cell pellet was lysed Tris 10 mM, 7.5, 1 mM EDTA and protease inhibitors (Complete, Roche) and homogenized using a 15 mL glass-dounce by 50 strokes. The homogenate was spun at spin @1500 rpm for 10 min, the supernatant transferred to SV-34 tubes and spun at 40000 g for 20 min at 4° C. to pellet the crude membranes. The supernatant was then removed, the pellet resuspended in 5 mL buffer containing 50 mM HEPES pH 7.4, 5 mM EGTA, and 5 mM MgCl2, and homogenized. Aliquots of the resuspended and homogenized membranes containing the Nluc-IL23R fusion protein were stored at −80° C. until use.
The plate was sealed with light impermeable plate seals, and incubated on a orbital shaker 400 rpm for 2 hours at room temperature. To determine the BRET ratio, the plate seal was removed and 25 μL of the Nanoluc substrate (Promega N1572) diluted 1:500 was added to each well and incubated for 1-2 minutes on an orbital shaker at 400 rpm. […] The BRET ratio was calculated as the fluorescence from the TAMRA/nanoluc bioluminescence. The IC50 for each compound was determined by computer-aided curve fitting using a 4-parameter logistic (4PL) non-linear model.
For `CC(=O)N[C@@H](CC(=O)O)C(=O)N[C@H]1CSCC(=O)CSC[C@@H](C(=O)N[C@@H](CCC(=O)O)C(=O)N[C@@H](CC(N)=O)C(=O)NCC(N)=O)NC(=O)[C@](C)(CC(C)C)NC(=O)[C@H](Cc2c[nH]c3ccccc23)NC(=O)[C@H](Cc2c[nH]c3ccccc23)NC(=O)[C@@H]2CSCC(=O)CSC[C@H](NC(=O)[C@H](CCC(N)=O)NC1=O)C(=O)N[C@@H](Cc1c[nH]c3ccccc13)C(=O)N[C@@H](CCC(N)=O)C(=O)N2` [Compound 64, [Ac]-DC(1a)QC(2a)WQC(2a)WW[2-Me-Leu]C(1a)ENG-[NH2]] (Ac-DCQCWQCWW[αMeL]CENG-NH2; linker 2-11, 4-7 via CH2COCH2), the Ki was above 1000 nM.

The same test, now with this note: Table 3-1; read-out: Ki hIL-23R.
Regarding `CC(C)C[C@]1(C)NC(=O)[C@H](Cc2ccc3ccccc3c2)NC(=O)[C@H](Cc2ccc(OCCN)cc2)NC(=O)[C@@H]2CCNC(=O)CC[C@H](NC(=O)[C@H](CO)NC(=O)c3cccc(c3)CNC(=O)CC[C@@H](C(=O)N[C@@H](CCCNC(=N)N)C(N)=O)NC1=O)C(=O)N[C@@H](Cc1c[nH]c3ccccc13)C(=O)N[C@@H](CCC(N)=O)C(=O)N2` [Compound 67, [(3-Aminomethyl)benzoyl](1c)*SE(2c)WQ[Dab](2c)[Y(2-aminoethoxy)][2-Nal][2-Me-Leu]E(1c)R-[NH2]] ([3Amb]SEWQ[Dab][AEF][2Nal][αMeL]ER-NH2; lactam 3-6, N-10), the Ki is 0.76 nM. On the same count and under the same terms, for `CC(C)C[C@]1(C)NC(=O)[C@H](Cc2ccc3ccccc3c2)NC(=O)[C@H](Cc2ccc(OCCN)cc2)NC(=O)[C@@H]2CCCNC(=O)CC[C@H](NC(=O)[C@H](CO)NC(=O)c3cccc(c3)CNC(=O)CC[C@@H](C(=O)N[C@@H](CCCNC(=N)N)C(N)=O)NC1=O)C(=O)N[C@@H](Cc1c[nH]c3ccccc13)C(=O)N[C@@H](CCC(N)=O)C(=O)N2` [Compound 69, [(3-Aminomethyl)benzoyl](1c)*SE(2c)WQ[Orn](2c)[Y(2-aminoethoxy)][2-Nal][2-Me-Leu]E(1c)R-[NH2]] ([3Amb]SEWQ[Orn][AEF][2Nal][αMeL]ER-NH2; lactam 3-6, N-10) the value was 2.76 nM; for `Cc1cccc2c(C[C@@H]3NC(=O)[C@@H]4CSCC(=O)CSC[C@H](NC(=O)[C@H](CCC(N)=O)NC3=O)C(=O)N[C@@H](Cc3ccc(OCCN)cc3)C(=O)N[C@@H](Cc3ccc5ccccc5c3)C(=O)N[C@@](C)(CC(C)C)C(=O)N[C@H](C(=O)N[C@@H](CCCNC(=N)N)C(N)=O)CCC(=O)NCc3cccc(c3)C(=O)N[C@@H](CO)C(=O)N4)c[nH]c12` [Compound 70, [(3-Aminomethyl)benzoyl](1c)*SC(2a)[7-Me-Trp]QC(2a)[Y(2-aminoethoxy)][2-Nal][2-Me-Leu]E(1c)R-[NH2]] ([3Amb]SC[Trp(7-Me)]QC[AEF][2Nal][αMeL]ER-NH2; linker 3-6 via CH2COCH2; lactam N-10), 0.485 nM.

For the molecule `CC(C)C[C@]1(C)NC(=O)[C@H](Cc2ccc3ccccc3c2)NC(=O)[C@H](Cc2ccc(OCCN)cc2)NC(=O)[C@@H]2CSCC(=O)CSC[C@H](NC(=O)[C@H](CO)NC(=O)c3cccc(c3)CNC(=O)CC[C@@H](C(=O)N[C@@H](CCCNC(=N)N)C(=O)N[C@@H](Cc3ccncc3)C(N)=O)NC1=O)C(=O)N[C@@H](Cc1c[nH]c3ccccc13)C(=O)N[C@@H](CCC(N)=O)C(=O)N2` [Compound 79, [(3-Aminomethyl)benzoyl](1c)*SC(2a)WQC(2a)[Y(2-aminoethoxy)][2-Nal][2-Me-Leu]E(1c)R[3-(4-Pyridyl)-Ala]-[NH2]] ([3Amb]SCWQC[AEF][2Nal][αMeL]ER[4Pal]-NH2; linker 3-6 via CH2COCH2; lactam N-10), the Ki was 2.09 nM. As for `CC(=O)N[C@H]1CCCCNC(=O)CC[C@@H](C(=O)N[C@H](CCCNC(=N)N)C(N)=O)NC(=O)[C@](C)(CC(C)C)NC(=O)[C@H](Cc2ccc3ccccc3c2)NC(=O)[C@H](Cc2ccc(OCCN)cc2)NC(=O)[C@@H]2CSCC(=O)CSC[C@H](NC(=O)[C@H](CO)NC1=O)C(=O)N[C@@H](Cc1c[nH]c3ccccc13)C(=O)N[C@@H](CCC(N)=O)C(=O)N2` [Compound 84, [Ac]-K(1c)SC(2a)WQC(2a)[Y(2-aminoethoxy)][2-Nal][2-Me-Leu]E(1c)[{d}R]-[NH2]] (Ac-KSCWQC[AEF][2Nal][αMeL]E[dR]-NH2; lactam 1-10; linker 3-6 via CH2COCH2), the Ki is 0.922 nM. `CC(C)C[C@]1(C)NC(=O)[C@H](Cc2ccc3ccccc3c2)NC(=O)[C@H](Cc2ccc(OCCN)cc2)NC(=O)[C@@H]2CSCC(=O)CSC[C@H](NC(=O)[C@H](CO)NC(=O)Cc3ccc(cc3)CNC(=O)CC[C@@H](C(=O)N[C@H](CCCNC(=N)N)C(=O)O)NC1=O)C(=O)N[C@@H](Cc1c[nH]c3ccccc13)C(=O)N[C@@H](CCC(N)=O)C(=O)N2` [Compound 108, [4-Aminomethyl-phenylacetyl](1c)*SC(2a)WQC(2a)[Y(2-aminoethoxy)][2-Nal][2-Me-Leu]E(1c)[{d}R]-[OH]] ([X1]SCWQC[AEF][2Nal][αMeL]E[dR]-OH; linker 3-6 via CH2COCH2; lactam N-10): the Ki is 0.0995 nM. Still for that read-out and setting: for `CC(C)C[C@]1(C)NC(=O)[C@H](Cc2ccc3ccccc3c2)NC(=O)[C@H](Cc2ccc(OCCN)cc2)NC(=O)[C@@H]2CSCC(=O)CSC[C@H](NC(=O)[C@H](CO)NC(=O)Cc3ccc(cc3)CNC(=O)CC[C@@H](C(=O)N[C@H](CCNC(=O)CCOCCOCC[N+](C)(C)C)C(N)=O)NC1=O)C(=O)N[C@@H](Cc1c[nH]c3ccccc13)C(=O)N[C@@H](CCC(N)=O)C(=O)N2` [Compound 109, [4-Aminomethyl-phenylacetyl](1c)*SC(2a)WQC(2a)[Y(2-aminoethoxy)][2-Nal][2-Me-Leu]E(1c)[{d}2,4-Diaminobutanoyl([2-(trimethyl-2-aminoethoxy)ethoxy]propyl)]-[NH2]] ([X1]SCWQC[AEF][2Nal][αMeL]E[dDab](Me3N+(CH2)2O(CH2)2O(CH2)2CO)-NH2; linker 3-6 via CH2COCH2; lactam N-10) the value was 0.46 nM; for `CC(C)C[C@]1(C)NC(=O)[C@H](Cc2ccc3ccccc3c2)NC(=O)[C@H](Cc2ccc(OCCN)cc2)NC(=O)[C@@H]2CSCC(=O)CSC[C@H](NC(=O)[C@H](CO)NC(=O)Cc3ccc(cc3)CNC(=O)CC[C@@H](C(=O)N[C@H](CCC(N)=O)C(N)=O)NC1=O)C(=O)N[C@@H](Cc1c[nH]c3ccccc13)C(=O)N[C@@H](CCC(N)=O)C(=O)N2` [Compound 115, [4-Aminomethyl-phenylacetyl](1c)*SC(2a)WQC(2a)[Y(2-aminoethoxy)][2-Nal][2-Me-Leu]E(1c)[{d}Q]-[NH2]] ([X1]SCWQC[AEF][2Nal][αMeL]E[dQ]-NH2; linker 3-6 via CH2COCH2; lactam N-10), 0.182 nM.

Turning to `CC(C)C[C@]1(C)NC(=O)[C@H](Cc2ccc3ccccc3c2)NC(=O)[C@H](Cc2ccc(OCCN)cc2)NC(=O)[C@@H]2CSCC(=O)CSC[C@H](NC(=O)[C@H](CO)NC(=O)Cc3ccc(cc3)CNC(=O)CC[C@@H](C(=O)N[C@H](Cc3c[nH]cn3)C(N)=O)NC1=O)C(=O)N[C@@H](Cc1c[nH]c3ccccc13)C(=O)N[C@@H](CCC(N)=O)C(=O)N2` [Compound 117, [4-Aminomethyl-phenylacetyl](1c)*SC(2a)WQC(2a)[Y(2-aminoethoxy)][2-Nal][2-Me-Leu]E(1c)[{d}H]-[NH2]] ([X1]SCWQC[AEF][2Nal][αMeL]E[dH]-NH2; linker 3-6 via CH2COCH2; lactam N-10), the Ki is 0.188 nM.
